# “And” between values parts separate entries of the source, which are not always exact repeats. Equal entries are not always repeated.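 Test compounds were applied to cells in 96-well plates for 48 hours at 5 doses. Here, GI50 denotes the concentration required for 50% inhibition of growth. The concentration for full growth arrest is given as TGI.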
# Tests used:
# Test in all cases: NCI tumour cell line growth inhibition, 48 h
# [1] = system: NCI-H23 lung
# [2] = system: A498 renal
# [3] = system: HOP-62 NSCLC
# [4] = system: NCI/ADR-RES ovarian
# [5] = system: RXF 393 renal
# [6] = system: CAKI-1 renal
# [7] = system: EKVX NSCLC
# [8] = system: SR leukemia
# [9] = system: HCT-15 colon
# [10] = system: A549 NSCLC
Structure (SMILES),GI50 [1],TGI [1] [µM],GI50 [2] [µM],TGI [2],GI50 [3],TGI [3] [µM],GI50 [4],TGI [4] [µM],GI50 [5] [µM],TGI [5],GI50 [6],TGI [6] [µM],GI50 [7] [µM],TGI [7] [µM],GI50 [8] [µM],TGI [8] [µM],GI50 [9],TGI [9] [µM],GI50 [10],TGI [10] [µM]
CCN1Cc2c(ccc(F)c2C#N)O[C@@H](C)CNC(=O)c2c(N)nn3ccc1nc23,2.3 µM,29.4,0.712,3.9 µM,2.76 µM,20.1,6.03 µM,56.3,0.46,3.67 µM,0.399 µM,1.98,5.03,31.4,0.626,> 100,2.46 µM,14.9,2.85 µM,24
COc1ccc(S(=O)(=O)Nc2cc(/C=C\c3cc(OC)c(OC)c(OC)c3)ccc2OC)cc1,0.48 µM,> 100,0.0357,0.382 µM,0.041 µM,> 100,0.0711 µM,30.8,0.0814,> 100 µM,0.0515 µM,20.6,,,0.0709,4.18,0.0623 µM,> 100,0.159 µM,> 100
CC(C)c1c(O)ccc2c1CCC1C(C)(C)CCCC21C (configuration not stated),,31.8,,,,,,31.2,,29.3 µM,,31.7,,31.7,,40.5,,34.3,,31.9
CCCCCCCCCCC(C(O)c1ccccc1)N1CCCCC1 (configuration not stated),2.27 µM,5.97,1.92,6.77 µM,1.91 µM,3.78,2.99 µM,10.7,1.76,3.4 µM,1.53 µM,3.06,2.09,6.08,2.13,5.34,1.63 µM,4.38,4.61 µM,17.1
C=C(C)[C@@H]1CC[C@]2(C)[C@H](CC=C3[C@@H]4[C@@H](C)[C@H](C)CC[C@]4(C(N)=O)CC[C@]32C)[C@@]1(C)CCC#N,5.72 µM,> 100,11,44.5 µM,7.71 µM,> 100,4 µM,17.2,3.33,11.4 µM,3.25 µM,> 100,5.22,> 100,2.58,9.48,3.44 µM,> 100,3.35 µM,> 100
COc1cc(/C=N/NC(=O)c2cnn3c2NC(c2ccccc2)C3)ccc1Oc1ccccc1 (configuration not stated),1.63 µM,10.8,1.18,7.03 µM,1.18 µM,4.34,1.73 µM,9.59,1.5,4.53 µM,0.996 µM,10.2,2.03,14.3,0.488,10,0.559 µM,3.15,1.5 µM,5
CCN1C(=O)N(c2ccccc2)C2NC(=S)N(/N=C/C=C/c3ccccc3)C21 (configuration not stated),0.569 µM,> 100,0.105,0.699 µM,0.4 µM,> 100,0.288 µM,> 100,0.345,> 100 µM,0.269 µM,> 100,0.619,> 100,0.114,> 100,0.293 µM,> 100,0.417 µM,> 100
COc1ccccc1N1CCN(CCc2c[nH]c3cc4c(cc23)OCO4)CC1,23.4 µM,> 100,16.6,83 µM,28.6 µM,> 100,26.4 µM,> 100,17.9,92.9 µM,18.5 µM,60.8,16.8,64.6,23.8,99,29.6 µM,> 100,31 µM,> 100
CC(=O)OCC(=O)[C@@]12OC(C)(C)O[C@@H]1C[C@H]1[C@@H]3CC=C4C[C@@H](O)CC[C@]4(C)[C@H]3CC[C@@]12C,,> 100,,> 100 µM,,> 100,,> 100,,61.4 µM,,> 100,,> 100,,> 100,,> 100,,> 100
CN1C(=O)C(CC(=O)O)NC1=S (configuration not stated),,> 100,,> 100 µM,,> 100,,> 100,,> 100 µM,,> 100,,> 100,,> 100,,> 100,,> 100
O=C(c1ccccc1)C(Br)C(Br)c1cccc([N+](=O)[O-])c1 (configuration not stated),2.25 µM,6.45,,,4.26 µM,14.4,2.88 µM,8.82,1.59,2.94 µM,1.76 µM,3.58,16.4,34.5,1.2,4.53,1.72 µM,3.36,14.3 µM,32.3
CN(C)CC1C(=O)O[C@H]2[C@H]1CC/C(COC(=O)c1cc3ccccc3[nH]1)=C\CC[C@@]1(C)O[C@@H]21 (some centres not stated),2.39 µM,8.3,11.1,23.9 µM,2.72 µM,7.98,1.76 µM,4.6,1.4,2.89 µM,1.31 µM,2.85,3.16,12.5,1.55,9.89,0.629 µM,2.28,4.62 µM,14.3
CC(C)COCC(CN(Cc1ccccc1)c1ccccc1)N1CCCC1 (configuration not stated),2.82 µM,14.6,1.03,10.4 µM,2.82 µM,14.4,3.12 µM,14.4,1.76,6.37 µM,3.25 µM,13.7,2.85,15.1,2.08,5.34,3.15 µM,15.2,3.48 µM,13.5
COc1cccc(OCCCN)c1-c1cc(Nc2cnc(C#N)cn2)n[nH]1,0.00479 µM and < 0.0109 µM,8.88,0.00476,0.23 µM and < 0.0269 µM,0.0136 µM and 0.0303 µM,13,0.071 µM and 0.054 µM,17.3,0.00496,0.0616 µM and 0.156 µM,0.405 µM and 0.0455 µM,11.9,,45.6,0.0032,1.25,0.0585 µM and 0.07 µM,14,0.035 µM and 0.0452 µM,15.1
O=C1C2C(c3ccccc3)NC(c3ccccc3)C1C(c1ccccc1)NC2c1ccccc1 (configuration not stated),,> 100,,> 100 µM,,> 100,,> 100,,> 100 µM,,> 100,,> 100,,> 100,,> 100,,> 100
Cc1cc2[nH]c(=O)c3c4ccccc4cn3c2cc1C,14.9 µM,32.2,21.5,39.6 µM,2.71 µM,8.18,13.6 µM,31.7,12,27.4 µM,5.33 µM,17.8,13.6,31.9,2.6,5.75,6.18 µM,22,14.8 µM,37.7
C=C1C(=O)O[C@H]2[C@H]1CCC(/C=N/c1ncc(Br)cc1N)=C\CC[C@@]1(C)O[C@@H]21,3.18 µM,17.2,4.82,17.5 µM,10.8 µM,24,3.11 µM,21.9,1.38,2.9 µM,,,2.36,11.8,1.32,7.68,1.49 µM,4.01,10.9 µM,25.3
COc1cc(Cl)cc(-c2nn(-c3cccc(NC(=O)Nc4cc(C(F)(F)F)cc(C(F)(F)F)c4)c3)cc2-c2ccncc2)c1,0.332 µM,2.01,0.629,4.81 µM,0.851 µM,2.6,0.778 µM,9.66,1.38,4.09 µM,0.426 µM,4.4,,,0.439,3.51,0.383 µM,2.74,0.386 µM,5.62
COc1ccc(NC(=O)COCCOCCNC[C@@H]2C(=O)O[C@H]3[C@H]2CC/C(COC(=O)OC/C2=C/CC[C@@]4(C)O[C@H]4[C@H]4OC(=O)[C@@H](CN(C)C)[C@@H]4CC2)=C\CC[C@@]2(C)O[C@@H]32)c(O)c1C(N)=O,9.06 µM,22.1,16.6,> 50 µM,39.9 µM,> 50,> 50 µM,> 50,1.3,3.59 µM,,,5.76,14.7,1.99,9.28,1.44 µM,6.14,31.8 µM,> 50
Cc1cc(NCc2cc(Nc3ccnc4cc(Cl)ccc34)ccc2F)nc(N2CCN(C)CC2)n1,2.1 µM,6.54,1.54,3.22 µM,1.62 µM,4.79,2.36 µM,7.72,1.26,2.94 µM,1.67 µM,4,2.91,12.6,0.245,1.03,1.34 µM,3.45,3.07 µM,10.9
Nc1nc(N)c2c(n1)NC(c1ccc(F)cc1)C1CCc3ccccc3C1=N2 (configuration not stated),4.06 µM,16.6,2.87,9.08 µM,6 µM,19.8,3.19 µM,11.4,5.48,20 µM,2.72 µM,16.2,2.83,14.6,1.65,4.14,3.99 µM,16.5,10.2 µM,24.3
O=c1oc2cc(N=Cc3ccc4c(c3)OCO4)ccc2c2ccccc12,,> 100,,> 100 µM,,> 100,,> 100,,67.2 µM,,> 100,,50.6,,> 100,,> 100,,> 100
CCN(CC)CCn1c2ccccc2c(=O)c2c(O)ccc(O)c21,,62.2,,> 100 µM,,86.5,,44,,35.9 µM,,61.5,,> 46.4,,26.2,,> 58.5,,> 100
CNC(=O)CC1NC(=O)c2csc(n2)-c2ccc(-c3nc(C4=NC(C(=O)N5CCCC5C(N)=O)CO4)cs3)nc2-c2csc(n2)-c2csc(n2)C(C(C)C)NC(=O)CNC(=O)c2csc(n2)C(C(C)C)NC(=O)c2nc1sc2C (configuration not stated),> 25 µM,,> 25,5.08 µM and > 25 µM,,,> 25 µM,> 25,> 25,> 25 µM,> 25 µM,> 25,> 25,> 25,< 0.001,,> 25 µM,> 25,> 25 µM,> 25
S=c1ssc(Oc2ccccc2)c1Cl,12.6 µM,50.9,,,37 µM,> 100,16.4 µM,35.4,12,29.8 µM,16 µM,29.5,18.4,38.9,0.605,> 100,7.76 µM,22.6,33.9 µM,> 100
Oc1ccccc1C=Nc1nc(SCc2ccccc2)nc2[nH]ncc12,61.2 µM,> 100,,,> 100 µM,> 100,43.8 µM,> 100,32.5,> 100 µM,47.6 µM,> 100,> 100,> 100,22.5,> 100,> 100 µM,> 100,65.2 µM,> 100
COc1cc(-n2cc(-c3ccc(Cl)cc3)nc2SCc2cccc(C#N)c2)cc(OC)c1OC,37.5 µM,> 100,33.3,> 100 µM,39.2 µM,> 100,94.7 µM,> 100,,,38.5 µM,> 100,18.2,56.9,> 100,> 100,> 100 µM,> 100,> 100 µM,> 100

# Source: PubChem BioAssay (NCI)
